According to ChEMBL document CHEMBL5223145, “A small molecule binding to TGGAA pentanucleotide repeats that cause spinocerebellar ataxia type 31” (Bioorg Med Chem Lett, 2023):
Calls of active or inactive are those of the source. No cut-off for these calls is given here.

Columns and labels:
[1] = Stabilization of GGA/GGA-motif DNA (unknown origin) assessed as increase in melting temperature
[2] = Stabilization of GGC/GGC -motif DNA (unknown origin) assessed as increase in melting temperature
[3] = Stabilization of AGG/AGG-motif DNA (unknown origin) assessed as increase in melting temperature
[4] = Stabilization of GGA/AGG-motif DNA (unknown origin) assessed as increase in melting temperature at 5 to 10 uM; details: dose 5-10 µM
[5] = Stabilization of GGA/AGA-motif DNA (unknown origin) assessed as increase in melting temperature at 5 to 10 uM; details: dose 5-10 µM
[6] = Stabilization of AGA/AGA-motif DNA (unknown origin) assessed as increase in melting temperature at 5 to 10 uM; details: dose 5-10 µM
[7] = Stabilization of GGA/AAA-motif DNA (unknown origin) assessed as increase in melting temperature at 5 to 10 uM; details: dose 5-10 µM
[8] = Stabilization of AGA/AAA-motif DNA (unknown origin) assessed as increase in melting temperature at 5 to 10 uM; details: dose 5-10 µM
[9] = Stabilization of AAA/AAA-motif DNA (unknown origin) assessed as increase in melting temperature at 5 to 10 uM; details: dose 5-10 µM
[10] = Binding affinity to GGA/GGA-motif hairpin DNA (unknown origin) assessed as association constant by isothermal titration calorimetry
[11] = Stabilization of TGGAA DNA (unknown origin) assessed as increase in melting temperature at 2 to 20 uM; details: dose 2-20 µM

Tm [1] [°C] | Activity [2] | Activity [3] | Tm [2] [°C] | Tm [4] [°C] | Tm [5] [°C] | Tm [6] [°C] | Tm [7] [°C] | Tm [8] [°C] | Tm [9] [°C] | Ka [10] | Tm [11] [°C] | Structure (SMILES)
6 | inactive | Active |  |  |  |  |  |  |  |  |  | Cc1ccc2ccc(NC(=O)OCCCNCCCOC(=O)Nc3ccc4ccc(C)nc4n3)nc2n1
13.8 |  | inactive | 4.6 | 13.8 | 9.8 | 11.6 | -1.2 | 0.3 | -1.2 | 2.5 10^7/M | 68.5 | Cc1ccc2ccc(NC(=O)CCN(CCC(=O)Nc3ccc4ccc(C)nc4n3)C(=O)CCCN)nc2n1
6 | inactive | Active |  |  |  |  |  |  |  |  |  | Cc1ccc2ccc(NC(=O)CCN(CCCCN)CCC(=O)Nc3ccc4ccc(C)nc4n3)nc2n1
7.5 |  | Active | 1.8 |  |  |  |  |  |  |  |  | Cc1ccc2ccc(NC(=O)CCNCCC(=O)Nc3ccc4ccc(C)nc4n3)nc2n1
